Patent US20130109049A1, “Method of Establishing a Fungal Nail Infection” (NOVABIOTICS LIMITED, priority 2009, published 2013)

What was measured:
[1] = tested on: Trichophyton rubrum strain NCPF0118; test: Ex vivo human nail fragment model, treatment of established infection (cfu recovered); assay type: cell-based
Experimental: For antifungal efficacy studies with human toe nails, a solution of 50% (w/v) PEG 8000 (Sigma-Aldrich; Cat No P2139) was prepared by autoclaving and then diluting with sterile 50% (w/v) urea solution (Sigma-Aldrich; Cat No 51457). This solution was mixed thoroughly by vortexing and allowed to stabilise at 50° C. for up to 2 h. After stabilisation, the temperature was allowed to drop to below 40° C. and a concentrated, filter-sterilised solution of Novexatin® (NP213), dissolved in deionised water was added. Final concentrations of PEG 8000 of 50% (w/v), urea of 0-20% (w/v) and Novexatin® (NP213) of 0-10% (w/v) were used in the experiments described below.
On arrival, the cultures were transferred to a Petri dish containing sterile Sabouraud Dextrose agar (Sigma-Aldrich; Cat No 84088, or equivalent) and grown for up to 7 d at 30° C. The resulting growth was scraped off and re-suspended in Sabouraud's liquid medium (Oxoid; Cat No CM 147, or equivalent) containing […] dimethyl sulfoxide (DMSO) as cryoprotectant to create a culture stock. The fungus was stored in 0.5 ml aliquots in 2 ml screw-capped polypropylene vials (Cryovials) at −80° C. Seven days prior to experimental use, 50 μl of the culture stock was used to inoculate a slope of Potato Dextrose agar (Merck; Cat No VM556130 609, or equivalent), which was incubated at 30° C. for up to 7 d. The surface of the resulting growth was gently perturbed in 3 ml of sterile distilled/deionised water. After filtration through 2 layers of sterile surgical gauze to remove debris and larger clumps of biomass, the absorbance of the resultant spore suspension was measured at 530 nm, then adjusted to the 0.5 MacFarland standard (OD approx. 0.15)^2.
Human toe nails were obtained from a podiatrist in Aberdeen following a successful application to the Grampian Local Research Ethics Committee. […] Large toe nails were cut into 4 pieces, each approximately 1 cm^2 in area, using nail clippers. Nails of normal thickness (≦2 mm) were chosen. The 4 fragments cut from each single nail were placed in quadrants marked on Petri-dishes containing phosphate buffered saline rendered solid with 1.2% (w/v) Technical Agar No. 3 (Oxoid; Cat No LP0013, or equivalent), subsequently referred to as PBS agar. The nail fragments were of irregular shape, so to ensure that each nail received the appropriate amount of the treatment solutions, the surface area was measured by photographing the nails over graph paper and determining the number of 1mm^2 squares covered by each nail. The thickness of the nails was measured with a micrometer and nails distributed among treatment groups, to avoid nail thickness providing an additional experimental variable.
Twenty four nail fragments from 6 whole large toenails were each inoculated with 10 μl of a spore suspension of T. rubrum NCPF0118 which was prepared as described above. The inoculum was applied to the ventral side of the nail (i.e. the side next to the skin in situ). The nails were incubated for 7 d at 30° C. to allow the fungus to infect the nail tissue. After this pre-incubation period, 12 of the fragments were assigned to each of 2 different treatment protocols, involving daily treatment with 2 different vehicle solutions, each containing a control and 3 different concentrations of Novexatin® (NP213). These vehicle solutions were: 50% (w/v) PEG 8000, and 50% (w/v) PEG 8000 plus 20% (w/v) urea. The concentrations of Novexatin® (NP213) studied were 0%, 1%, 5% and 10% (w/v). The solutions were applied at a volume of 10 μl/cm^2, corrected for the surface area of the different nail fragments as described above. The applied solution was spread over the dorsal side of the nail, to mimic the intended clinical treatment and the ventral side of the nail rested on the agar surface. Each time the nails were treated, they were transferred to a new sterile Petri dish containing PBS agar to minimise any build-up of fungal growth on the agar. Nail fragments were treated daily for 28 days. […]

T. rubrum NCPF0118 = test: In vitro MIC100 testing; assay type: cell-based, Trichophyton rubrum; conditions: versus T. rubrum NCPF0118; revealed in separate tests
[2] = Experiment 1, 5% (w/v), absence of urea, daily 28 days

7 to 200-mer (SEQ ID NO: 3) polyarginine [Novexatin® (NP213)]
killing of T. rubrum NCPF0118 on nail fragments (dose dependence) ([1]; Experiment 1, 0%, 1%, 5%, 10% (w/v) in 50% PEG 8000 with or without 20% urea, daily for 28 days): dose-dependent | reduction in fungal survival ([1]; Experiment 1, 1% (w/v), daily 28 days): approximately 1 log10 | fungi isolated with 20% (w/v) urea added to the vehicle, versus vehicle alone ([1]; Experiment 1, 1% (w/v), not statistically significant): fewer fungi than in vehicle alone | fungal colonies isolated from nail fragments ([1]; Experiment 1, 5% (w/v) with 20% (w/v) urea in vehicle, daily 28 days): no colonies were isolated | decrease in survival of the fungus compared to controls [1, 2]: approximately 3 log10 | fungal colonies isolated from nail fragments [1, 2]: a small number of colonies were detected | recoverable fungal growth after treatment ([1]; Experiment 5, 10% (w/v), approximately 100×MIC100, 14 d or 28 d, daily): no recoverable fungal growth | concentration equal to 100× the MIC100 (T. rubrum NCPF0118): ~10 % (w/v)
